Where a name gives a salt, the structure may show the parent alone.
Each compound was assayed against full-length human PRMT8 isoform 1 (Homo sapiens, UniProt Q9NR22) (assay: PRMT8 biochemical assay (3H-SAM Flashplate, histone H4 31-45 peptide)). Conditions: 1.5 nM PRMT8, 30 min preincubation, 150 nM peptide.
From the text: S-adenosylmethionine (SAM), S-adenosylhomocysteine (SAH), bicine, Tween20, dimethylsulfoxide (DMSO), bovine skin gelatin (BSG), isopropyl-β-D-thiogalactopyranoside (IPTG), and Tris(2-carboxyethyl)phosphine hydrochloride solution (TCEP) were purchased from Sigma-Aldrich at the highest level of purity possible. ^3H-SAM was purchase from American Radiolabeled Chemicals with a specific activity of 80 Ci/mmol. 384-well streptavidin Flashplates were purchased from PerkinElmer.
Peptide representative of human histone H4 residues 31-45 was synthesized with an N-terminal linker-affinity tag motif and a C-terminal amide cap by 21st Century Biochemicals. The peptide was purified by high-performance liquid chromatography (HPLC) to greater than 95% purity and confirmed by liquid chromatography mass spectrometry (LC-MS). The sequence was Biot-Ahx-[…]-amide (SEQ ID NO.:8).
The resulting construct encodes an N-terminal GST tag and a thrombin cleavage sequence
E. coli (BL21(DE3) Gold, Stratagene) made competent by the CaCl2 method were transformed with the PRMT8 construct and ampicillin selection. Protein over-expression was accomplished by growing the PRMT8 expressing E. coli clone and inducing expression with 0.3 mM IPTG at 16° C. The culture was grown for 12 hours, harvested by centrifugation, and stored at −80° C. for purification.
GST-tagged PRMT8 was eluted with 50 mM Tris, 2 mM glutathione, pH 7.8. Pooled fractions were cleaved by thrombin (10U) and dialysed in buffer A. GST was removed by reloading the cleaved protein sample onto glutathione sepharose column and PRMT8 was collected in the flow-through fractions. PRMT8 was purified further by ceramic hydroxyapatite chromatography. The column was washed with 50 mM phosphate buffer, 100 mM NaCl, 5% glycerol, 5 mM […], pH 7.8 and PRMT8 was eluted by 100 mM phosphate in the same buffer. Protein was concentrated and buffer was exchanged to 50 mM Tris, 300 mM NaCl, 10% glycerol, 5 mM β-mercaptoethanol, pH 7.8 by ultrafiltration. The purity of recovered protein was 89%.
General Procedure for PRMT8 Enzyme Assays on Peptide Substrates.
The assays were all performed in a buffer consisting of 20 mM Bicine (pH=7.6), 1 mM TCEP, 0.005% BSG, and 0.002% Tween 20, prepared on the day of use. Compounds in 100% DMSO (1 ul) were spotted into a polypropylene 384-well V-bottom plates (Greiner) using a Platemate Plus outfitted with a 384-channel head (Thermo Scientific). DMSO (1 ul) was added to Columns 11, 12, 23, 24, rows A-H for the maximum signal control and 1 ul of SAH, a known product and inhibitor of PRMT8, was added to columns 11, 12, 23, 24, rows I-P for the minimum signal control. A cocktail (40 ul) containing the PRMT8 enzyme was added by Multidrop Combi (Thermo-Fisher). The compounds were allowed to incubate with PRMT8 for 30 min at room temperature, then a cocktail (10 ul) containing ^3H-SAM and peptide was added to initiate the reaction (final volume=51 ul). The final concentrations of the components were as follows: PRMT8 was 1.5 nM, ^3H-SAM was 50 nM, non-radiolabeled SAM was 550 nM, peptide was 150 nM, SAH in the minimum signal control wells was 1 mM, and the DMSO concentration was 2%. The assays were stopped by the addition of non-radiolabeled SAM (10 ul) to a final concentration of 400 uM, which dilutes the ^3H-SAM to a level where its incorporation into the peptide substrate is no longer detectable. 50 ul of the reaction in the 384-well polypropylene plate was then transferred to a 384-well Flashplate and the biotinylated peptides were allowed to bind to the streptavidin surface for at least 1 hour before being washed once with 0.1% Tween20 in a Biotek ELx405 plate washer. The plates were then read in a PerkinElmer TopCount plate reader to measure the quantity of ^3H-labeled peptide bound to the Flashplate surface, measured as disintegrations per minute (dpm) or alternatively, referred to as counts per minute (cpm). […]

Sequence of full-length human PRMT8 isoform 1 (Q9NR22 whole entry, canonical isoform): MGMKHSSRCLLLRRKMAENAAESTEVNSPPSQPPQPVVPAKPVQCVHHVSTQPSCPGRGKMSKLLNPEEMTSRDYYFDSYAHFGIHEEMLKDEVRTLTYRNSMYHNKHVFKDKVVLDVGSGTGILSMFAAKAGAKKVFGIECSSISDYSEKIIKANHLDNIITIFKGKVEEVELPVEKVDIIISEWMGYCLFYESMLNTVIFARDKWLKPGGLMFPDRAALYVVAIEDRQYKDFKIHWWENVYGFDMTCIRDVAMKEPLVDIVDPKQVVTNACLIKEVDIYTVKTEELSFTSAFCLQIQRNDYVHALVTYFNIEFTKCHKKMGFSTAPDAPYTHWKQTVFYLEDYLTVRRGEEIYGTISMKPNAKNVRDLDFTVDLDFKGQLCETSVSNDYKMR

SMILES	IC50 [nM]
CNCCN(C)Cc1c[nH]nc1C1CCC(OCCCOC)C2(CCCC2)C1 (mixture of isomers) [compound 19, N1-((3-(10-(3-methoxypropoxy)spiro[4.5]decan-7-yl)-1H-pyrazol-4-yl)methyl)-N1,N2-dimethylethane-1,2-diamine dihydrochloride]	30.1
CNCCN(C)Cc1c[nH]nc1C1CC(COCC2CC2)CC(COCC2CC2)C1 (centres unmarked) [compound 2]	365
CNCCN(C)Cc1c[nH]nc1C1C[C@@H](C(=O)N(C)CC(C)C)C(C)(C)[C@H](C(=O)N(C)CC(C)C)C1 (some centres unmarked) [compound 12]	> 10000
CNCCN(C)Cc1c[nH]nc1C1C[C@H](C(=O)NCCOC)C(C)(C)[C@H](C(=O)NCCOC)C1 (some centres unmarked) [compound 13]	> 10000
CCN(C)C(=O)C1CC(c2n[nH]cc2CN(C)CCNC)CC(C(=O)NCCC(C)C)C1(C)C (centres unmarked) [compound 14, N1-ethyl-N3-isopentyl-N1,2,2-trimethyl-5-(4-((methyl(2-(methylamino)ethyl)amino)methyl)-1H-pyrazol-3-yl)cyclohexane-1,3-dicarboxamide]	> 10000
CNCCN(C)Cc1c[nH]nc1C1=CCC(CF)(CF)CC1 [compound 15, N-((3-(4,4-bis(fluoromethyl)cyclohex-1-en-1-yl)-1H-pyrazol-4-yl)methyl)-N1,N2-dimethylethane-1,2-diamine]	15.3
CNCCN(C)Cc1c[nH]nc1C1=CCC(COCC(F)(F)F)CC1 (centres unmarked) [compound 16, N1,N2-dimethyl-N1-((3-(4-((2,2,2-trifluoroethoxy)methyl)cyclohex-1-en-1-yl)-1H-pyrazol-4-yl)methyl)ethane-1,2-diamine]	26.4
CNCCN(C)Cc1c[nH]nc1C1CCC(C)(C)[C@H](OCC(C)C)C1 (stereo partly drawn) [compound 20, ({3-[(3R)-4,4-dimethyl-3-(2-methylpropoxy)cyclohexyl]-1H-pyrazol-4-yl}methyl)(methyl)[2-(methylamino)ethyl]amine]	24.5

Results, then the compound that gave them:

IC50 [nM]	SMILES
67.6	CNCCN(C)Cc1c[nH]nc1[C@@H]1CC[C@@H](OCCCOC)C2(CCCC2)C1 (racemic) [compound 26, N1-((3-((7R,10R)-10-(3-methoxypropoxy)spiro[4.5]decan-7-yl)-1H-pyrazol-4-yl)methyl)-N1,N2-dimethylethane-1,2-diamine]
31.2	CNCCN(C)Cc1c[nH]nc1[C@@H]1CC[C@H](OCCCOC)C2(CCCC2)C1 (racemic) [compound 27, N1-((3-((7R,10S)-10-(3-methoxypropoxy)spiro[4.5]decan-7-yl)-1H-pyrazol-4-yl)methyl)-N1,N2-dimethylethane-1,2-diamine]
32.8	CNCCN(C)Cc1c[nH]nc1[C@H]1CC[C@@]2(CCCCO2)CC1 [compound 3]
16	CNCCN(C)Cc1c[nH]nc1[C@H]1CC[C@]2(CCCOC2)CC1 [compound 4, N1-((3-((6s,9s)-2-oxaspiro[5.5]undecan-9-yl)-1H-pyrazol-4-yl)methyl)-N1,N2-dimethylethane-1,2-diamine]
17.7	CNCCN(C)Cc1c[nH]nc1[C@H]1CC[C@@]2(CCCOC2)CC1 [compound 5, N1-((3-((6r,9r)-2-oxaspiro[5.5]undecan-9-yl)-1H-pyrazol-4-yl)methyl)-N1,N2-dimethylethane-1,2-diamine]
62.4	CNCCN(C)Cc1c[nH]nc1C1CCC(COCC(C)C)(COCC(C)C)CC1 [compound 6]
11.1	CNCCN(C)Cc1c[nH]nc1C1CCC2(CCC(OC)CC2)CC1 (centres unmarked) [compound 9, N1-((3-(9-methoxyspiro[5.5]undecan-3-yl)-1H-pyrazol-4-yl)methyl)-N1,N2-dimethylethane-1,2-diamine]
106	CNCCN(C)Cc1c[nH]nc1[C@H]1CC[C@]2(CCN(CCC(C)C)C2=O)CC1 [compound 10]
10.2	CNCCN(C)Cc1c[nH]nc1[C@H]1CC[C@@]2(CCN(CCC(C)C)C2=O)CC1 [compound 11, (5r,8r)-2-isopentyl-8-(4-((methyl(2-(methylamino)ethyl)amino)methyl)-1H-pyrazol-3-yl)-2-azaspiro[4.5]decan-1-one]
